Data set [1] in a line: Absolute bioavailability of drospirenone after oral administration. As to conditions: female, human, in vivo.
Data set [2] in a line: Solubility and chemical stability of the active substances. The class given is physicochemical. The settings on record: for solubility: water and aqueous buffers at various pH values. From the text: To ensure good bioavailability of the compound, it is therefore advantageously provided in a form that promotes rapid dissolution thereof.
This has the added advantage of facilitating a more homogenous distribution of the ethinylestradiol throughout the composition which might otherwise be difficult to obtain because ethinylestradiol is incorporated in extremely small amounts. When ethinylestradiol is provided in micronized form, it preferably has the following particle size distribution as determined under the microscope: 100% of the particles have a diameter of ≦15.0 μm, 99% of the particles have a diameter of ≦12.5 μm, 95% of the particles have a diameter of ≦10.0 μm, and 50% of the particles have a diameter of ≦3.0 μm. Furthermore, no particle is larger than 20 μm, and […] have a diameter of ≧15 μm and ≦20 μm.

Data set [3] can be described thus: Relative bioavailability of drospirenone and ethinylestradiol from tablets versus oral suspension, open-label crossover study. The class given is in vivo. The settings on record: female, human, tablet 3 mg drospirenone + 0.03 mg ethinylestradiol, healthy women, serum concentrations, read-out: relative bioavailability from the tablets compared to the oral suspension. The method, then: 42 healthy women between 18 and 35 years of age were included in an open-label crossover study after their informed consent had been obtained. The aim of the study was to investigate the relative bioavailability of drospirenone and ethinylestradiol from a tablet formulation containing 3 mg drospirenone and 0.03 mg ethinylestradiol with reference to an oral suspension containing 6 mg of drospirenone and 0.06 mg ethinylestradiol per vial.
The bioavailability was determined using serum concentrations of each active agent as parameters. […] It was therefore concluded that both drospirenone and ethinylestradiol are completely released from the tablets in vivo.

A short description of data set [4]: Dissolution of drospirenone from tablets, USP XXIII Paddle Method. Type of data set: physicochemical. The settings on record: 900 ml water, 37° C., 50 rpm. As for the experimental part: Instead of providing the drospirenone in micronized form, it is possible to dissolve it in a suitable solvent, e.g. methanol or ethyl acetate, and spray it onto the surface of inert carrier particles followed by incorporation of the particles containing drospirenone on their surface in the composition.
The rate of dissolution of drospirenone from the tablets prepared in Example 1 is determined by the USP XXIII Paddle Method using a USP Dissolution Test Apparatus 2 including 6 covered glass vessels and 6 paddles. Tablets are placed in 900 ml water at a temperature of 37° C. (±0.5° C.) and stirred at 50 rpm.

For the compound `C[C@]12CCC(=O)C=C1[C@@H]1C[C@@H]1[C@H]1[C@@H]3[C@@H]4C[C@@H]4[C@@]4(CCC(=O)O4)[C@@]3(C)CC[C@@H]12` [drospirenone, 6β,7β;15β,16β-dimethylene-3-oxo-17α-pregn-4-ene-21,17-carbolactone], the bioavailability in data set [1] (oral administration of 2 mg drospirenone, 8 young healthy women) was determined as 76%; in data set [1] (oral microcrystalline suspension containing 3.13 mg drospirenone, 6 postmenopausal women), 85%; in data set [3] it was 107%. In data set [2] (acid conditions), the “stability under acid conditions” value is “rearranged to an inactive isomer”. For the same compound, in data set [2] (alkaline conditions), the “stability under alkaline conditions” value was “hydrolysed”. For the same compound, the solubility entry in data set [2] is “sparingly soluble”. The “drospirenone dissolved within 30 minutes” value in data set [4] (film-coated tablets, FIG. 3) was “more than 70%”; in data set [4] (tablet cores, FIG. 2) it was “more than 70%”.
Consider `C#C[C@]1(O)CC[C@H]2[C@@H]3CCc4cc(O)ccc4[C@H]3CC[C@@]21C` [ethinylestradiol, 17α-ethinylestradiol], for which, in data set [2], the solubility result is listed as “sparingly soluble”. For the same compound, in data set [3], the bioavailability was 117%.

For the origin of these results see patent publication US6787531B1, “Pharmaceutical composition for use as a contraceptive” (Schering AG, priority 1999, dated 2004).
